Assays:
[1] = tested on: human skin fibroblasts; experiment: Fibroblast proliferation, MTT assay; format: cell-based; details: Homo sapiens, Skin fibroblast; 100 nM, n=3
Source text: Human type II epithelial A549 cells from human lung carcinoma and normal human skin fibroblast (breast) were obtained from the American Type Culture Collection (Rockville, Md.). The A549 cell line originated from a human alveolar cell carcinoma and was a useful cell line because it was easily assessable and could be maintained in culture without contaminating tissue macrophages. (Lieber, M., et al (1976) A continuous tumor-cell line from a human lung carcinoma with properties of type II alveolar epithelial cells. Int. J Cancer Fibroblasts were utilized within their limited window of viability and their passage numbers were recorded (results are reported for cells from 3-5 passages). Epithelial A549 cells were seeded into T-75 cm^2 tissue culture flasks and maintained in F-12K medium supplemented with 10% heat-inactivated FBS, penicillin (50 U/mL) and streptomycin (50 (g/mL). Human PMN from healthy donors who had not taken ASA or other medications for at least two weeks were obtained by Ficoll-Hypaque gradient centrifugation and dextran sedimentation, (Böyum A. (1968) Isolation of mononuclear cells and granulocytes from human blood. […] Viability of A549 cells and PMN was determined by their ability to exclude trypan blue and were 95±2 and 97±1%, respectively.
A microculture 3,(4,5-dimethylthiazoyl-2-yl) 2,5 (diphenyl-tetrazolium bromide) (MTT) assay, (Marshall, N. J., et al. (1995) A critical assessment of the use of microculture tetrazolium assays to measure cell growth and function. Growth Regul. 5: 69-84.), was used to examine the actions of LXs and other eicosanoids on cell proliferation. A549 cells and fibroblasts from exponential-phase maintenance cultures were counted and dispensed within replicate 96-well culture plates in 100 μl volumes of medium (˜2000 cells/well). […] Dye solution was aspirated, wells were washed once with HBSS and dye taken up by the cells was extracted in 100 μl of isopropyl alcohol:1 N HCl (96:4, v/v) and quantitated at 570 nm using a microplate reader (Molecular Devices, Menlo Park, Calif.). […]

[2] = tested on: A549 cells; experiment: A549 cell proliferation, MTT assay; format: cell-based, human; details: Homo sapiens, A549
Protocol: A microculture 3,(4,5-dimethylthiazoyl-2-yl) 2,5 (diphenyl-tetrazolium bromide) (MTT) assay, (Marshall, N. J., et al. (1995) A critical assessment of the use of microculture tetrazolium assays to measure cell growth and function. Growth Regul. 5: 69-84.), was used to examine the actions of LXs and other eicosanoids on cell proliferation. A549 cells and fibroblasts from exponential-phase maintenance cultures were counted and dispensed within replicate 96-well culture plates in 100 μl volumes of medium (˜2000 cells/well). Following 24 hours at 37° C., the culture medium was removed, and fresh medium (100 μl) containing either the compounds (5-1000 nM) or vehicle (medium plus 0.15% ethanol) was added to 4 replicates for each condition studied and the culture plates were then incubated for up to 96 hours at 37° C. in a 5% CO2 atmosphere. At the end of this period, 25 μl of freshly prepared MTT in HBSS (5 mg/ml) was added to the wells and the plates were incubated for 4 hours at 37° C. Dye solution was aspirated, wells were washed once with HBSS and dye taken up by the cells was extracted in 100 μl of isopropyl alcohol:1 N HCl (96:4, v/v) and quantitated at 570 nm using a microplate reader (Molecular Devices, Menlo Park, Calif.). In some experiments, cells were grown in 12-well culture plates, treated as above and enumerated using a Neubauer hemocytometer. Viability was assessed routinely using trypan blue exclusion assay. For the A549 cells and fibroblasts, a linear relation was established for the MTT values and cell number within the range of the experiments shown (r=0.995, P<0.005). A549 cells grown for 72 hours in the presence of the compounds (5-1000 nM) or vehicle (0.15% EtOH) were lysed with 0.25 N NaOH and the cellular protein content was determined by applying the Bio-Rad (Richmond, Calif.) microassay method using bovine serum albumin as standard. The mean cellular protein content in resting A549 cells was 46.6±1.5 pg/cell.

[3] = tested on: PLD activity in human PMN; experiment: PLD activity (PEt formation) in PMN; format: cell-based; details: PMN; IAP at LXA4 10^−9-10^−10 M, staurosporine (100 nM) at LXA4 10^−7 M
Protocol: PMN, platelet and RBC isolation from peripheral blood. Human PMN were obtained by the modified Böyum method (Böyum, A. (1968) Scan. J. Clin. Lab. Invest. 21:77) from fresh heparinized blood after venipuncture of healthy normal volunteers. Suspensions in PBS were monitored for cell number and viability by their ability to exclude trypan blue both exceeding 98%. Red blood cells were obtained from 10 ml of heparinized blood after three centrifugations in PBS (2,500 rpm, 10 min at 21° C.). Blood drawn in acidic citrate dextrose (9:1, v/v) was used to isolate platelets as previously described (Serhan, C. N. and Sheppard, K.-A. (1990) J. Clin. Invest. 85:772). PLD activity. Human PMN and HL-60 cells (50×10^6 cells/ml) prepared as above were incubated with ^3H-myristic acid or ^3H-palmitic acid (8 μCi/50×10^6 cells) for 40-60 min at 37° C. in PBS. […] Incubations were carried out at 37° C. (10 ×10^6 cells/ml PBS). […] M. et al. (1989) J. Biol. Chem. 264:17069. At indicated times, incubations were stopped by adding 3.5 ml of ice cold CHCl3/MeOH (2/5, v/v) containing 1-^14C-arachidonic acid (5,000 cpm) used here as internal standard to quantitate extraction recoveries. Samples were extracted using a modified Bligh and Dyer extraction as in (Serhan, C. N. and Sheppard, K. -A. (1990) J. Clin. Invest. 85:772). Organic phases, concentrated in 50 μL of CHCl3/MeOH (8/2, v/v), were spotted onto linear […] TLC plates developed with the organic phase of ethyl acetate[…][…] (110/50/20/100, v/v/v/v) for 50 min ([…]. et al.(1989) J. Biol. Chem. 264:17069). […] Regions corresponding to PA, PEt, and internal standards were scraped and quantified by liquid scintillation counting. […] In these experiments, PA was resolved using ethyl acetate[…][…]) as solvent system ([…]. et al. (1989) Anal. […] Impact of IAP and staurosporine on LXA4-induced PLD activity. PLD activity assays, performed as described (vide supra), were preceded by cell exposure to either IAP or staurosporine. […]

[4] = tested on: PLD activity in differentiated HL-60 cells; experiment: PLD activity (PEt formation) in differentiated HL-60 cells; format: cell-based, human; details: HL-60 cells; IAP (300 ng/ml) at LXA4 10^−9-10^−10 M, staurosporine (100 nM) at LXA4 10^−7 M
Protocol: Cell cultures and differentiation. HL-60 cells were seeded in RPMI medium supplemented with 100 U/ml penicillin, 100 μg/ml streptomycin, and 10% fetal calf serum (Hyclone, Logan, Utah), incubated at 37° C. with 5% CO2 atmosphere in 250 ml flasks. Individual flasks containing ˜[…] next received dimethyl sulfoxide (DMSO) (1.12% v/v, 120 h) or retinoic acid (RA) (1 μM, 120 h) or phorbol myristate acetate (PMA) (20 nM, 48 h). Before performing binding assays, cells were washed twice in phosphate buffered saline (PBS), Ca^2+- and Mg^2+-free, enumerated and suspended at 20×10^6 cells/ml in Tris buffer (10 mM), pH 7.4 (Fiore, S. et al.(1992) J. Biol. Chem. 267:16168). Nitro blue tetrazolium reduction was performed to monitor induction of polymorphonuclear phenotype as in (Imaizumi, M. and Breitman, T. R. (1986) Blood 67:1273), and cell adherence was determined for induction of macrophage-like phenotype (Collins, S. J. (1987) Blood 70:1273). Human umbilical vein endothelial cells (HUVEC) maintained in culture third passage were obtained from Dr. M. Gimbrone (Brigham and Women's Hospital Department of Pathology).
PLD activity. Human PMN and HL-60 cells (50×10^6 cells/ml) prepared as above were incubated with ^3H-myristic acid or ^3H-palmitic acid (8 μCi/50×10^6 cells) for 40-60 min at 37° C. in PBS. Cell uptake ranged between 60-80% of added label, 7.1±4.2% (n=10; mean ±S.D.) and 32.6±10.3% (n=6; mean ±S.D.) into total phospholipid classes of PMN and HL-60 cells, respectively. Incubations were carried out at 37° C. (10 ×10^6 cells/ml PBS). […] At indicated times, incubations were stopped by adding 3.5 ml of ice cold CHCl3/MeOH (2/5, v/v) containing 1-^14C-arachidonic acid (5,000 cpm) used here as internal standard to quantitate extraction recoveries. […] Regions corresponding to PA, PEt, and internal standards were scraped and quantified by liquid scintillation counting. […] All values reported for PEt formation in Tables 4 and 5 were calculated by subtracting the dpm obtained in the presence of […]. […]

Work on C[C@@H]1C[C@H]2[C@@H]3CCC4=CC(=O)C=C[C@]4(C)[C@@]3(F)[C@@H](O)C[C@]2(C)[C@@]1(O)C(=O)CO [Dexamethasone] yielded an inhibition at 0.1 µM [1] of 29.7%, an inhibition at 0.1 µM ([2]; 10^−7 M, 72 hours at 37° C., mean ± SEM, 3 to 7 experiments) of 42.1 ± 5.4% and an IC50 ([2]; MTT assay, 72 hours, read-out: half maximum inhibition (IC50) of A549 cell proliferation) of roughly 7 nM.
CN[C@@H]1C[C@H]2O[C@@](C)([C@@H]1OC)n1c3ccccc3c3c4c(c5c6ccccc6n2c5c31)C(=O)NC4 [staurosporine] was tested, and the “effect on LXA4-mediated PLD activity” value [3] was “inhibited by staurosporine” and the “effect on LXA4-mediated PLD activity” value [4] was “inhibited by staurosporine”.
For IAP: Islet activating protein, the “effect on LXA4-mediated PLD activity” value [3] was “sensitive to IAP treatment” and the “effect on LXA4-mediated PLD activity” value [4] was “sensitive to IAP treatment”.

Reference: patent US20030134901A1, “Lipoxin compounds and their use in treating cell proliferative disorders” (priority 1993, published 2003)
